Experimental data: patent publication US20040235717A1, “Suppression of androgen receptor transactivation through new pathways to ar and ar coactivators and repressors” (priority 2001, published 2004)

Columns and labels:
p21 expression = test: p21 promoter activity (luciferase) and p21 protein expression; format: cell-based
Procedure: 18. […] (A) Akt suppressed androgen/AR-induced p21 promoter activity. […] (B) Androgen/AR-induced PC-3(AR)6 apoptosis and p21 protein expression was blocked by Akt PC-3(AR)6 was transfected with pCDNA3, cAkt, or dAkt, as indicated, for 16 h. […] (C) AR-induced p21 protein expression was enhanced by dAkt in LNCaP cells. […] LNCaP stable transfection with dAkt was confirmed by western blot assay using phospho-Akt (Ser473) antibody. […] TPA was then added for another 24 h and cell apoptosis was determined by TUNEL assay. […] IGF-1 was added for another 30 min, followed by 10 nM TPA treatment for another 24 h. The apoptosis was determined by TUNEL assay. The data are means±s.d. from three independent experiments.

AR protein stability = test: Pulse-chase labeling of AR in COS-1 cells; format: cell-based; settings: LY294002 20 μM
Procedure: 30. […] The cells were harvested for Western blot analysis. […] Western blot analysis was performed and AR and PTEN were detected by AR antibody or PTEN antibody. (C) PTEN-C1 cells were treated with 4 μg/ml Dox in 10% CDS media for 48 h. Total RNA was prepared and Northern blot analysis was performed using [^32P]-dCTP-labeled AR (aa, 1-389) as a probe. (D) COS-1 cells were transfected with AR along with pCDNA3 or PTEN in 10% CDS media for 16 h. […] The cell extracts were immunoprecipitated with AR antibody and subjected to SDS-PAGE followed by autoradiography. Data were from three identical results. (E) COS-1 cells were transfected with AR along with pCDNA3 or dAkt in 10% CDS media for 16 h, pulsed with [^35S]-methionine for 45 min, and then harvested at different chase times as indicated. LY294002 (20 μM) was added 2 h before pulsing with [^35S]-methionine.
317. Pulse-chase experiments were performed as described (Lo et al. (1999) Nat Cell Biol 1, 472-8) with some modifications. Briefly, COS-1 cells were transfected with pSG5-AR in combination with pCDNA3 or pCDNA3 PTEN in 10% CDS media for […]. Cells were grown under serum starvation conditions for 2 h in methionine/cysteine-deficient medium, and then the cells were pulsed for 45 min with 200 μCi/ml [^35S]-methionine/cysteine (NEN). […]

p21 expression in response to androgen (p21 expression; LNCaP stably transfected with dAkt, 10 nM DHT 2 days, 2.5 fold without dAkt): 14.5 fold
Substance: dAkt: dominant-negative Akt, a kinase deficient mutant, K179A
Effect on androgen/AR-induced p21 expression (p21 expression; PC-3 cells, transfected): enhanced p21 expression in a dose-dependent manner | AR degradation (AR protein stability): did not promote AR degradation
